Source: the NIST ThermoML archive (doi:10.1016/j.fluid.2009.07.002)

Assay: xn = mol fraction of the nth substance listed
Details: 101 kPa, Liquid, Taylor dispersion method

OCCO [1,2-ethanediol] + O
binary diffusion coefficient [m2/s]
Details | 298.2 K | 303.2 K | 308.2 K | 313.2 K | 318.2 K | 323.2 K
x1 = 0 | 1.1e-09 | 1.24e-09 | 1.38e-09 | 1.51e-09 | 1.68e-09 | 1.86e-09
x1 = 0.2 | 6.95e-10 | 8.14e-10 | 8.89e-10 | 9.8e-10 | 1.09e-09 | 1.19e-09
x1 = 0.4 | 4.82e-10 | 5.28e-10 | 5.8e-10 | 6.31e-10 | 7.57e-10 | 8.48e-10
x1 = 0.6 | 3.81e-10 | 4.02e-10 | 4.51e-10 | 5.18e-10 | 6e-10 | 6.88e-10
x1 = 0.8 | 3.18e-10 | 3.34e-10 | 4.05e-10 | 4.68e-10 | 5.24e-10 | 6.03e-10

OCCOCCO [diethylene glycol] + O
binary diffusion coefficient [m2/s]
Details | 303.2 K | 308.2 K | 313.2 K | 318.2 K | 323.2 K
x1 = 0 | 1.04e-09 | 1.13e-09 | 1.25e-09 | 1.41e-09 | 1.53e-09
x1 = 0.2 | 4.69e-10 | 5.24e-10 | 6.02e-10 | 7.01e-10 | 7.83e-10
x1 = 0.4 | 3.18e-10 | 3.75e-10 | 4.45e-10 | 5.16e-10 | 5.71e-10
x1 = 0.6 | 2.82e-10 | 3.29e-10 | 3.93e-10 | 4.6e-10 | 5.37e-10
x1 = 0.8 | 2.56e-10 | 3.06e-10 | 3.72e-10 | 4.3e-10 | 5.03e-10

OCCOCCOCCO [triethylene glycol] + O
binary diffusion coefficient [m2/s]
Details | 303.2 K | 308.2 K | 313.2 K | 318.2 K | 323.2 K
x1 = 0 | 8.15e-10 | 8.99e-10 | 9.94e-10 | 1.07e-09 | 1.18e-09
x1 = 0.2 | 3.71e-10 | 4.3e-10 | 5.1e-10 | 5.48e-10 | 6.3e-10
x1 = 0.4 | 2.78e-10 | 3.12e-10 | 3.7e-10 | 4.27e-10 | 4.8e-10
x1 = 0.6 | 2.33e-10 | 2.7e-10 | 3.25e-10 | 3.79e-10 | 4.44e-10
x1 = 0.8 | 2.01e-10 | 2.41e-10 | 2.98e-10 | 3.51e-10 | 4.15e-10
